In experiment [1] the test system is RPMI 7951. Briefly: Emory Laboratory Cell Screen, Neutral Red, RPMI 7951. It is filed as cell-based, human. Particulars: RPMI 7951, Melanoma, 72 hours, read-out: Median Growth Inhibitory Concentration (GI50). The protocol:
(§1) Human tumor and endothelial cell lines were treated for 72 hours with compounds at a minimum of four concentrations between 0.1 μM-40 μM. Neutral Red assay was used to calculate cell viability.

The subject of experiment [2] is MDA-MB-231. Briefly: Emory Laboratory Cell Screen, Neutral Red, MDA-MB-231. It is filed as cell-based, human. Particulars: MDA-MB-231, Breast Cancer, 72 hours, read-out: Median Growth Inhibitory Concentration (GI50). The method, then: as §1
Experiment [3] deals with MDA-MB-435. As to the kind of experiment: Emory Laboratory Cell Screen, Neutral Red, MDA-MB-435. It is filed as cell-based, human. Particulars: MDA-MB-435, Breast Cancer, 72 hours, read-out: Median Growth Inhibitory Concentration (GI50). The protocol: as §1
The subject of experiment [4] is HUVECS. As to the kind of experiment: Emory Laboratory Cell Screen, Neutral Red, HUVECS. Format: cell-based, human. Particulars: 72 hours, read-out: Median Growth Inhibitory Concentration (GI50). The method, then:
as §1

In experiment [5] the test system is Human tumor and endothelial cell lines. Briefly: Emory Laboratory Cell Screen, mean over cell lines. Format: cell-based. Conditions: Mean over the Emory cell lines, 72 hours, read-out: Median Growth Inhibitory Concentration (GI50), Mean. The method, then: as §1
Experiment [6] has as its system Tissue Factor (TF) production by human melanoma cell line RPMI-7951. As to the kind of experiment: TF ELISA, RPMI-7951. Format: cell-based. The protocol:
(§2) IMUBIND Tissue Factor ELISA Kit (American Diagnostica Inc, Greenwich, Conn.) was used to determine TF concentration in each sample. The ELISA was carried out according to manufacturer's procedure.
Background: In an ELISA, binding on a coated surface is turned into a signal by an enzyme label.

For experiment [7], the system named is Vascular Endothelial Growth Factor (VEGF) production by human prostate cancer cell line DU-145. As to the kind of experiment: VEGF ELISA, DU-145. It is filed as cell-based.
Experiment [8] concerns Vascular Endothelial Growth Factor (VEGF) production by human prostate cancer cell line PC-3. Briefly: VEGF ELISA, PC-3. It is filed as cell-based.
The subject of experiment [9] is Tissue Factor (TF) production by human prostate cancer cell line DU-145. As to the kind of experiment: TF ELISA, DU-145. Particulars: 20 μM. Format: cell-based. The method, then:
(§3) Cells were treated with 1% Triton X-100 in PBS and left overnight at 4° C. overnight to solubilize TF. […] IMUBIND Tissue Factor ELISA Kit (American Diagnostica Inc, Greenwich, Conn.) was used to determine TF concentration in each sample. The ELISA was carried out according to manufacturer's procedure.

Experiment [10] has as its system Tissue Factor (TF) production by human prostate cancer cell line PC-3. As to the kind of experiment: TF ELISA, PC-3. Conditions: 20 μM. It is filed as cell-based. The protocol: as §3
Experiment [11] concerns Tissue Factor (TF) production by human breast cancer cell line MDA-MB-231. Briefly: TF ELISA, MDA-MB-231. Format: cell-based. Conditions: 0.5 μM. The method, then: as §2
The test system of experiment [12] is Vascular Endothelial Growth Factor (VEGF) production by human melanoma cell line RPMI-7951. Briefly: VEGF ELISA, RPMI-7951. Particulars: for VEGF ELISA / VEGF: RPMI-7951; for VEGF ELISA: DMSO control 3713.
Description: RPMI-795 1, MDA-MB-231 and MDA-MB-435 cell lines were cultured in MEM-alpha medium (GIBCO-BRL, Long Island, N.Y.) containing 10% fetal bovine serum (RPMI-7951, MDA-MB-231) or 5% FBS (MDA-MB-435) at 37° C. and under 5% CO2/95% air. […] The cells were cultured in 48 well plates in all of the experiments described.
A VEGF enzyme-linked immunosorbent assay (ELISA) was utilized to determine the effect of the compounds of the present invention on VEGF production of a variety of human cancer cell lines. For the VEGF assay, cells were plated at a concentration of 80,000 cells/well and cultured overnight. Compounds or vehicle (DMSO 0.1%) were then added and the plates were incubated for 72 hours. Supernatant was then collected from each well and frozen in a −80° C. freezer until needed. Cell viability was determined by Neutral Red Assay. VEGF ELISA Kit (R & D, Minneapolis, Minn.) was used to determine the amount of VEGF in the culture supernatants. The ELISA was carried out according to the manufacturer's procedure.
Experiment [13] deals with RPMI-7951 human melanoma. Briefly: Neutral Red Assay, cell viability, RPMI-7951. Particulars: Homo sapiens.
[14] abbreviates: Table 4, 20 μM, mean of triplicate and S.D.
The mark [15] stands for this setting: Homo sapiens, RPMI-7951, 72 h, read-out: VEGF.
The mark [16] stands for this setting: RPMI-7951, 72 h, read-out: Neutral Red Uptake, %.
Where [17] appears, read: RPMI-7951, read-out: Cell Viability.

SMILES strings stand for the structures. Read-outs that look alike come from different tables or passages of the source.

For `COc1cc(C=C2CSCC(=Cc3ccc(O)c(OC)c3)C2=O)ccc1O` [MD283], the GI50 was determined as 1.4 µM in [1]; 1.8 µM in experiment [2]; 1.9 µM in [3]; 3.1 µM in experiment [4]; 2.1 µM in experiment [5].

Turning to `O=C(C=Cc1ccccc1O)C=Cc1ccccc1O` [EF2, 1,5-Bis(2-hydroxyphenyl)penta-1,4-dien-3-one], the TF is 82% in experiment [6] (5 μM, DMSO = 100); 14% in [6] (20 μM, DMSO = 100); 5780 pg/mL in experiment [6] (Table 5, 5 μM, DMSO control 7054); 1009 pg/mL in experiment [6] (Table 5, 20 μM, DMSO control 7054); 5540 ± 364 pg/mL in [9] (mean of triplicate and S.D., DMSO 7699 ± 406); 73 ± 10 pg/mL in [10] (mean of triplicate and S.D., DMSO 203 ± 6). Further, the TF in experiment [11] (DMSO = 100) was 82%; in experiment [11] (DMSO control 45753), 37697 pg/mL. In addition, the “TF ELISA” value in [6] (5 μM, DMSO control 7054) is on record as 1009 pg/ml/well. The “VEGF (% of DMSO)” value in experiment [7] (20 μM, DMSO = 100%) is given as “(40%)”; in experiment [8] (20 μM, DMSO = 100%), “(1%)”. Further, the VEGF in experiment [7] (20 μM, mean of triplicate and S.D., DMSO 18760 ± 2633) is 7516 ± 1915 pg/mL; in [7] (Table 4, 20 μM, DMSO = 100), 40%; in [7] (setting [14]), 7516 ± 1915 pg/mL; in [8] (20 μM, mean of triplicate and S.D., DMSO 2103 ± 100), 26 ± 44 pg/mL; in experiment [8] (Table 4, 20 μM, DMSO = 100) it was 1%; in experiment [8] (setting [14]) it was 26 ± 44 pg/mL. Moreover, the VEGF in [12] (5 μM, DMSO control 4197 (EF-25: 1045)) came out at 1522 pg/mL; in experiment [12] (20 μM, DMSO control 4197), 0 pg/mL. Further, the results for the “TF (% of DMSO)” value in experiment [9] (DMSO = 100%) and in experiment [10] (DMSO = 100%) were “(72%)” and “(36%)”, respectively. In addition, the GI50 in experiment [1] (Homo sapiens) came out at 0.8 µM; in experiment [2] (Homo sapiens), 1.5 µM; in experiment [3] (Homo sapiens), 3.3 µM; in experiment [4] (Homo sapiens, HUVEC), 1.7 µM; in experiment [5] (Homo sapiens, Endothelial cell) it was 1.8 µM. Besides, the activity at 5 µM in experiment [12] (setting [15]) came out at 36%. In addition, in [12] (setting [15]), the activity at 20 µM came to 0%. The “VEGF ELISA” value in [12] (5 μM) was 1295 pg/ml/well; in experiment [12] (20 μM), 84 pg/ml/well. In addition, the values for the viability at 5 µM in [13] (setting [16]) and in [13] (setting [17]) were 46% and 68%, respectively. Besides, the viability at 20 µM in experiment [13] (setting [16]) was determined as 7%; in [13] (setting [17]), 42%.
